The target of the test is T1, C5a receptor (Homo sapiens, UniProt P21730).
T1 sequence (P21730 1-350): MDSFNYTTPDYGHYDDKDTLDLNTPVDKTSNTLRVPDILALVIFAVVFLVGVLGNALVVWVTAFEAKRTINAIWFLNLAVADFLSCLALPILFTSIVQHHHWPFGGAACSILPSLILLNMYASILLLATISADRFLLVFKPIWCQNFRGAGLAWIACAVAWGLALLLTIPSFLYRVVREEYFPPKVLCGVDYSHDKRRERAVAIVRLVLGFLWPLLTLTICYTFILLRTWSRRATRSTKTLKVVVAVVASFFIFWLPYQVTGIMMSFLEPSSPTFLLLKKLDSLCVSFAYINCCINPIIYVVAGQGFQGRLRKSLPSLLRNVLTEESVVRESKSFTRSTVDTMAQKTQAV
The experiment in a line: C5a receptor blocking activity of the peptides of the invention.

For 1 molecule, C5a blocking activity results are on record in patent US4692511A, “Peptide antagonists for the C5a anaphylatoxin” (Immunetech Pharmaceuticals, priority 1984, dated 1987).

Peptide text beside a SMILES is read from it.

Turning to `C[C@H](NC(=O)CNC(=O)[C@@H](N)CC(=O)O)C(=O)O` [Asp-Gly-Ala] (H-Asp-Gly-Ala-OH), the C5a blocking activity result was “displays C5a blocking activity”.
